Several values for one entry are separate records, joined by “and”; a condition that tells them apart may be missing. Equal entries are not always repeated. Where two headings read alike, the source gives them in different places.

The test system of data set [1] is HIV-2 (ROD). In words: Anti-HIV activity in MT-4 cells. The data set is classed as cell-based.
Data set [2] deals with MT-4 cells. In words: Cytotoxicity in uninfected MT-4 cells. Conditions: uninfected MT-4 cell viability reduced by 50%. The data set is classed as cell-based.
Data set [3] addresses WT HIV-1 RT (Human immunodeficiency virus type 1 group M subtype B, UniProt P03366). In words: HIV-1 RT inhibition assay. The conditions noted are these: for RT IC50: WT HIV-1 RT, mean of at least two separate experiments. The data set is classed as biochemical.
In data set [4] the target is HIV-1 RT RNase H (Human immunodeficiency virus type 1 group M subtype B, UniProt P03366). As to the kind of experiment: HIV-1 RT RNase H inhibition. The format is biochemical. Conditions: for RNase H IC50: mean of four separate experiments.
Data set [5] is described as follows: Cytotoxicity in uninfected MT-4 cells. The data set is classed as cell-based. The conditions noted are these: human, uninfected MT-4 cells.
In data set [6] the test system is HIV-1 L100I. As to the kind of experiment: Anti-HIV-1 activity against mutant strain L100I in MT-4 cells. The format is cell-based.
In data set [7] the test system is HIV-1 K103N. As to the kind of experiment: Anti-HIV-1 activity against mutant strain K103N in MT-4 cells. The data set is classed as cell-based.
In data set [8] the test system is HIV-1 Y181C. In words: Anti-HIV-1 activity against mutant strain Y181C in MT-4 cells. The format is cell-based.
Data set [9] concerns HIV-1 Y188L. In words: Anti-HIV-1 activity against mutant strain Y188L in MT-4 cells. The format is cell-based.
The test system of data set [10] is HIV-1 E138K. As to the kind of experiment: Anti-HIV-1 activity against mutant strain E138K in MT-4 cells. The format is cell-based.
Data set [11] concerns HIV-1 RES056 (K103N/Y181C). As to the kind of experiment: Anti-HIV-1 activity against double mutant RES056 in MT-4 cells. The format is cell-based.
The subject of data set [12] is HIV-1 F227L + V106A. As to the kind of experiment: Anti-HIV-1 activity against double mutant F227L + V106A in MT-4 cells. The format is cell-based.
For data set [13], the target named is CYP2C9 (Homo sapiens, UniProt P11712). As to the kind of experiment: Cytochrome P450 inhibition, CYP2C9. The data set is classed as in vitro ADME.
Sequence of CYP2C9 (P11712 whole entry): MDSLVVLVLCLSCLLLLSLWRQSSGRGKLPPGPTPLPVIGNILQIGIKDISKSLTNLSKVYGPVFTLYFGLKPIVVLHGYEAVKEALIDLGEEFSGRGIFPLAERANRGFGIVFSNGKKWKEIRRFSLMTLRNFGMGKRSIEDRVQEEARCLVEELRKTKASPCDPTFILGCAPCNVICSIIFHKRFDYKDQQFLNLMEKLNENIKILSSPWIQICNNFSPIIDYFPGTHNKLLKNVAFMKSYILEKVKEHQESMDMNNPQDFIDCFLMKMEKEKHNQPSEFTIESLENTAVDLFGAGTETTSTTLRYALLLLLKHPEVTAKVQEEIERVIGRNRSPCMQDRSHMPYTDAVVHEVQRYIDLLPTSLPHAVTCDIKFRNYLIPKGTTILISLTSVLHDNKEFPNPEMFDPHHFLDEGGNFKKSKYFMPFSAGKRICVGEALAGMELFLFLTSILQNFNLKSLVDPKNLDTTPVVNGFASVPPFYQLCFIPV
For data set [14], the target named is CYP2C19 (Homo sapiens, UniProt P33261). In words: Cytochrome P450 inhibition, CYP2C19. The data set is classed as in vitro ADME.
Sequence of CYP2C19 (P33261 whole entry): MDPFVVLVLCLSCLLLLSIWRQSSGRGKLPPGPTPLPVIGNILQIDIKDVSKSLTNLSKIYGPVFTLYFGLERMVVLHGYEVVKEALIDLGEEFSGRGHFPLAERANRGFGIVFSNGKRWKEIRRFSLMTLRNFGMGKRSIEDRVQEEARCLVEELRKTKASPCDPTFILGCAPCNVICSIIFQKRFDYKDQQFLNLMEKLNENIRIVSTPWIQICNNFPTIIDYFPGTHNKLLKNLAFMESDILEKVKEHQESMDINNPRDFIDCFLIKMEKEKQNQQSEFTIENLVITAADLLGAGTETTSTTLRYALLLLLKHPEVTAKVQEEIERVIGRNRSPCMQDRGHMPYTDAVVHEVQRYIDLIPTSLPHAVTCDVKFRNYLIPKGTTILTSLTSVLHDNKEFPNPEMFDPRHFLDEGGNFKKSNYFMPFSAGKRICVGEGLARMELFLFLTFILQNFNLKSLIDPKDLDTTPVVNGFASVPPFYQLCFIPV
Data set [15] in a line: In vivo pharmacokinetics in SD rats. The conditions noted are these: rat, plasma.
For data set [16], the target named is CYP3A4M (Homo sapiens, UniProt P08684).
Sequence of CYP3A4M (P08684 whole entry): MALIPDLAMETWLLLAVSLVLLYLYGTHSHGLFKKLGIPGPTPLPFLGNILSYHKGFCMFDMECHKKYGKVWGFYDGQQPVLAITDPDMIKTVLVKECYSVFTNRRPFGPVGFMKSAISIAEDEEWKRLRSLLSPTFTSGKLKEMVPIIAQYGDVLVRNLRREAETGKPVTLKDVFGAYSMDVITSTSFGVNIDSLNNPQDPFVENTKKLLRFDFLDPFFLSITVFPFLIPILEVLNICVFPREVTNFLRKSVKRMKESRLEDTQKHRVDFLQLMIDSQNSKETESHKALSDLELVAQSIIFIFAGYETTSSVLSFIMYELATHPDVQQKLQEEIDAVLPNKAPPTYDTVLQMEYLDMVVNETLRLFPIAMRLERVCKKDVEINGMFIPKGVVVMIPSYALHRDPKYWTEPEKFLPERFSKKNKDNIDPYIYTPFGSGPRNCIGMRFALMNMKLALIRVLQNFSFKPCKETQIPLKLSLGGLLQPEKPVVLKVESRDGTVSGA
Data set [17] has as its target T1, CYP1A2 (Homo sapiens, UniProt P05177).
T1 sequence (P05177 1-516): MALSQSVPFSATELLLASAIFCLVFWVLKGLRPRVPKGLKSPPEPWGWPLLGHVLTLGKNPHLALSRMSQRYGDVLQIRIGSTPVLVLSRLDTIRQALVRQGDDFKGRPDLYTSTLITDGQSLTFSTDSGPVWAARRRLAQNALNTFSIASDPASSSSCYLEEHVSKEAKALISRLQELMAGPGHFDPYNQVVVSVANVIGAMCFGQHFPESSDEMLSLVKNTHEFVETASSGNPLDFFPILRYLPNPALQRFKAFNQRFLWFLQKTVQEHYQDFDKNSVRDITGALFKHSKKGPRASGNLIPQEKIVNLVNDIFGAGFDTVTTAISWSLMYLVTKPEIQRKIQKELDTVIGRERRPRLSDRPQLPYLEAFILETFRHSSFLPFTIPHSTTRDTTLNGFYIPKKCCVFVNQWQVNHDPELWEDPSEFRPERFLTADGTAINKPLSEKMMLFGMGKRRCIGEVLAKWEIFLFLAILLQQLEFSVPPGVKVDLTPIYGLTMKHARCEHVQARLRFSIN
In words: biochemical.

For data set [18], the target named is CYP2D6 (Homo sapiens, UniProt P10635). In words: biochemical.
Sequence of CYP2D6 (P10635 whole entry): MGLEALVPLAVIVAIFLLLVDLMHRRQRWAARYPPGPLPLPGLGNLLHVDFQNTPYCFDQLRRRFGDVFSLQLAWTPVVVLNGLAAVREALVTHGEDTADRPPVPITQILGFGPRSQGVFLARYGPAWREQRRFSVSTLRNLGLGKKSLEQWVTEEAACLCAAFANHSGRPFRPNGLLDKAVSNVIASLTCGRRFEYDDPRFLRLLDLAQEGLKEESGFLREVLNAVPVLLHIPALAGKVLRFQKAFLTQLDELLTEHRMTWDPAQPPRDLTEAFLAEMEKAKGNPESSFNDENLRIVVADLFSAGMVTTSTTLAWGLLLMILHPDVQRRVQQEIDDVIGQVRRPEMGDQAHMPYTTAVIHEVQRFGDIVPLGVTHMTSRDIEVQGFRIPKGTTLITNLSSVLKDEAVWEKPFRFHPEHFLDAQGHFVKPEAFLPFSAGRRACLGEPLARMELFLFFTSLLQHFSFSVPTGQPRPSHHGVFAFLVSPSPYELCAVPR
A short description of data set [19]: Kinetic aqueous solubility. Conditions: kinetic from dmso stock.
The nature of data set [20]: Plasma protein binding, dialysis equilibrium method, rat.
Data set [21] in a line: Plasma protein binding, dialysis equilibrium method, human.
The conditions of data set [22]: cited from earlier work.
Where [23] appears, read: read-out: EC50 ROD, MT-4 cells, HIV-2 strain ROD.
[24] abbreviates: Human immunodeficiency virus 2, MT4, read-out: EC50 ROD.
Where [25] appears, read: Human immunodeficiency virus 1, MT4, read-out: EC50 L100I.
Setting [26] is: Human immunodeficiency virus 1, MT4, read-out: EC50 K103N.
The mark [27] stands for this setting: Human immunodeficiency virus 1, MT4, read-out: EC50 Y181C.
[28] abbreviates: Human immunodeficiency virus 1, MT4, read-out: EC50 Y188L.
Setting [29] is: Human immunodeficiency virus 1, MT4, read-out: EC50 E138K.
[30] abbreviates: Human immunodeficiency virus 1, MT4, read-out: EC50 RES056.
[31] abbreviates: Human immunodeficiency virus 1, MT4, read-out: EC50 F227L + V106A.
Where [32] appears, read: aqueous solution at pH 2.0, pH 2, aqueous buffer.
Setting [33] is: aqueous solution at pH 7.0, pH 7, aqueous buffer.
Setting [34] is: aqueous solution at pH 7.4, pH 7.4, aqueous buffer.

On to `COC(=O)CNc1nc(Nc2ccc(C#N)cc2)nc(Oc2c(C)cc(-c3ccc(C#N)cc3)cc2C)n1` [Compound 5a, Methyl (4-((4ʹ-cyano-3,5-dimethyl-[1,1ʹ-biphenyl]-4-yl)oxy)-6-((4-cyanophenyl)-amino)-1,3,5-triazin-2-yl) glycinate], for which, in [1] (setting [23]), the concentration giving a half-maximal response (EC50) was found to be 560 ± 140 nM. Moreover, the CC50 in [2] is > 125 µM. In addition, the “RT IC50” value in [3] is 0.047 ± 0.003 µg/mL. The “RNase H IC50” value in [4] is >600 µg/mL.

`Cc1cc(-c2ccc(C#N)cc2)cc(C)c1Oc1nc(NCCN2CCOCC2)nc(Nc2ccc(C#N)cc2)n1` [Compound 5j, 4ʹ-((4-((4-Cyanophenyl)amino)-6-((2-morpholinoethyl)amino)-1,3,5-triazin-2-yl)-oxy)-3ʹ,5ʹ-dimethyl-[1,1ʹ-biphenyl]-4-carbonitrile]: the EC50 is 50 ± 1 nM in [1] (setting [24]); 12 ± 2 nM in [6] (setting [25]); 3 ± 1 nM in data set [7] (setting [26]); 13 ± 2 nM in data set [8] (setting [27]); 17 ± 3 nM in data set [9] (setting [28]); 6.4 ± 0.1 nM in data set [10] (setting [29]). Besides, the results for the EC50 in data set [11] (setting [30]) and in data set [12] (setting [31]) were 34 ± 4 nM and 17 ± 4 nM, respectively. The CC50 at 4 days in data set [5] is 1080 ± 90 nM. Besides, the IC50 is 176 nM in data set [3]; > 1.1 mM in data set [4]; 32.9 µM in [13]; > 50 µM in [14]; > 50 µM in data set [16]; > 50 µM in data set [17]. Moreover, the IC50 in data set [18] is > 50 µM. In data set [15] (iv, 1 mg/kg), this compound registered an AUC(0-inf) of 6660 ± 809 ng·h/mL. The AUC(0-t) in [15] (iv, 1 mg/kg) was found to be 6650 ± 795 ng·h/mL; in data set [15] (po, 20 mg/kg), 322 ± 176 ng·h/mL. The compound further showed a clearance in data set [15] (iv, 1 mg/kg) of 5.06 ± 0.658 mL/min/kg. The compound also showed a half-life in data set [15] (iv, 1 mg/kg) of 44 ± 10.4 min. In data set [15] (po, 20 mg/kg), the highest concentration (Cmax) was 43.2 ± 39.8 ng/mL. For the same compound, in data set [15] (po, 20 mg/kg), the Tmax amounted to 13.3 ± 9.24 h. In data set [15] (po, 20 mg/kg), the bioavailability stood at 0.485%. Also, the solubility (kinetic) in data set [19] (FaSSIF) was 41.6 µg/mL and 76.2 µM; in data set [19] (setting [32]), 6.58 µg/mL and 12.1 µM; in [19] (setting [33]), < 0.853 µg/mL and < 1.56 µM; in [19] (setting [34]), < 0.853 µg/mL and < 1.56 µM. Moreover, the values for the recovery at 2 μmol/L in data set [20] and in data set [21] were 99.5% and 84.9%, respectively.

For the compound `COC(=O)CNc1nc(Nc2ccc(C#N)cc2)nc(Nc2c(C)cc(-c3ccc(C#N)cc3)cc2C)n1` [Compound 6b, Methyl (4-((4ʹ-cyano-3,5-dimethyl-[1,1ʹ-biphenyl]-4-yl)amino)-6-((4-cyanophenyl)amino)-1,3,5-triazin-2-yl) glycinate], the EC50 in [1] (setting [23]) worked out at 21500 nM. Besides, the CC50 in data set [2] was > 125 µM. In data set [3], the “RT IC50” value turned out to be 0.033 ± 0.004 µg/mL. The “RNase H IC50” value in [4] was >600 µg/mL.

For `Cc1cc(-c2ccc(C#N)cc2)cc(C)c1Nc1nc(Nc2ccc(C#N)cc2)nc(N2CCC(O)C2)n1` (stereo not shown) [Compound 6k, 4ʹ-((4-((4-Cyanophenyl)amino)-6-(3-hydroxypyrrolidin-1-yl)-1,3,5-triazin-2-yl)-amino)-3ʹ,5ʹ-dimethyl-[1,1ʹ-biphenyl]-4-carbonitrile], the EC50 is > 4540 nM in data set [1] (setting [24]); 4.1 ± 0.5 nM in data set [6] (setting [25]); 2.3 ± 0.5 nM in [7] (setting [26]); 3 ± 0.2 nM in [8] (setting [27]); 10 ± 3 nM in data set [9] (setting [28]); 3.5 ± 0.8 nM in data set [10] (setting [29]). In addition, the values for the EC50 in data set [11] (setting [30]) and in data set [12] (setting [31]) were 60 nM and 1040 nM, respectively. Also, half-maximal cytotoxicity in [5] (CC50 at 4 days) was put at 4540 ± 2560 nM. Further, the IC50 in [3] is 103 nM; in data set [4], > 1.19 mM. Also, the solubility (kinetic) in [19] (FaSSIF) was 53.4 µg/mL and 104 µM; in data set [19] (setting [32]) it was 53.7 µg/mL and 104 µM; in data set [19] (setting [33]), < 0.784 µg/mL and < 1.56 µM; in data set [19] (setting [34]) it was < 0.784 µg/mL and < 1.56 µM.

Regarding `O=C1Nc2ccc(Cl)cc2[C@@](C#CC2CC2)(C(F)(F)F)O1` [EFV, reference compound], the 50% cytotoxic concentration (CC50) in [2] was >2.0 µM. Further, the EC50 is 14 nM in data set [6] (read-out: EC50 L100I, MT-4 cells, single mutant); 30 ± 11 nM in [7] (read-out: EC50 K103N, MT-4 cells, single mutant); 1.3 ± 0.1 nM in data set [8] (read-out: EC50 Y181C, MT-4 cells, single mutant); 82 ± 7 nM in data set [9] (read-out: EC50 Y188L, MT-4 cells, single mutant); 1.5 ± 0.1 nM in data set [10] (read-out: EC50 E138K, MT-4 cells, single mutant); 71 ± 36 nM in data set [11] (read-out: EC50 RES056, MT-4 cells, double mutant K103N/Y181C). Also, the EC50 in data set [12] (read-out: EC50 F227L + V106A, MT-4 cells, double mutant) is 84 ± 20 nM.

In the case of `Cc1cc(C#N)cc(C)c1Oc1nc(Nc2ccc(C#N)cc2)nc(N)c1Br` [ETR, etravirine, reference compound], the CC50 at 4 days in data set [5] was > 2 µg/mL. The CC50 in data set [2] (listed as ETV) was >2.0 µM. Also, the aqueous solubility entry in [22] is on record as “lower than 1 μg/mL”. In addition, the kinetic solubility in [19] (FaSSIF) is 13.2 µg/mL and 30.3 µM; in data set [19] (setting [32]), 127 µg/mL and 291 µM; in data set [19] (setting [33]), < 1 µg/mL and < 2.3 µM; in [19] (setting [34]), < 1 µg/mL and < 2.3 µM.

For the compound `CC(=O)CC(c1ccccc1)c1c(O)c2ccccc2oc1=O` (stereo not shown) [Warfarin, reference compound], the figures for the recovery at 2 μmol/L in [20] and in [21] were 99% and 86%, respectively.
